These results are taken from patent publication US8710017B2, “Human and mouse targeting peptides identified by phage display” (priority 2000, dated 2014).

Entries after “also recorded” stand apart in the source; their conditions may differ. Ends that are not written are not given here. Peptide text beside a SMILES is read from it. * marks the point of attachment. Cbz = O=C(OCc1ccccc1)*; CH2F = FC*

Assay [1] relates to HUVEC. Description: Apoptosis by chromatin fragmentation (agarose gel) in HUVEC. The assay is classed as cell-based, human. The protocol:
10^6 HUVEC were treated with 15 μM of VISY antennapedia (penetratin) chimera or 15 μM of antennapedia peptide (pentratin) alone for 2-4 hours and chromatin fragmentation was analyzed by electrophoresis in an agarose gel.

The test system of assay [2] is placenta. Nature of the assay: Effect of placental targeting peptide conjugates on fetal development in pregnant mice. The assay is classed as in vivo, mouse. The settings on record: for effect on pregnancy: FITC conjugated, lower dosages (450 μg total); for effect on fetal development: protein and phage conjugated, higher dosages (800 to 1000 μg protein or 4.5×10^10 phage). An excerpt: The CARAC peptide (SEQ ID NO:46), an adipose targeting peptide (FE, TREVHRS, SEQ ID NO:47) or fd-tet phage were used as non-placental targeting controls.

The target of assay [3] is T1, APA (SK-RC-49/APA cells) (Homo sapiens, UniProt Q07075).
T1 construct: The renal carcinoma cell line SK-RC-49 was transfected with an expression vector encoding full-length APA cDNA; expressed in transfected cells; host or cells: SK-RC-49 renal carcinoma cells, stably transfected (G418)
Description: Cell panning of CX3CX3CX3C phage library on SK-RC-49/APA cells (insert frequency). The assay is classed as cell-based. Particulars: share of 18 randomly selected phage inserts, round 2. The protocol:
A CX3CX3CX3C(C, cysteine; X, any amino acid) library was prepared (Rajotte et al., 1998). […] Cells were detached by incubation with 2.5 mM EDTA in PBS, washed once in binding medium (DMEM high glucose supplemented with 20 mM HEPES and 2% FCS), and resuspended in the same medium at a concentration of 2×10^6 cells/ml. 10^10 TU of phage were added to 500 μl of the cell suspension, and the mixture was incubated overnight (first round) or for 2 h (successive rounds) at 4° C. with gentle rotation. Cells were washed five times in binding medium at room temperature and resuspended in 100 μl of the same medium. Phage were rescued by adding 1 ml of exponentially growing K91Kan Escherichia coli bacteria and incubating the mixture for 1 h at room temperature. Bacteria were diluted in 10 ml of LB medium supplemented with 0.2 μg/ml tetracycline and incubated for another 20 min at room temperature. Serial dilutions were plated on LB plates containing 40 μg/ml tetracycline, and plates were incubated at 37° C. overnight before colonies were counted.
The CX3CX3CX3C phage library (10^10 transducing units [TU]) was preadsorbed on parental SK-RC-49 cells to decrease nonspecific binding. […] SK-RC-49/APA-bound phage were amplified and used for two consecutive rounds of selection.

Assay [4] has as its target T1, APA (SK-RC-49/APA cells). Description: Phage binding specificity assay on SK-RC-49/APA cells. The assay is classed as cell-based. Particulars: input 10^9 TU, not shown. The protocol: The cell binding assay was performed with an input of 10^9 TU as described for the cell panning. The specificity was confirmed by adding […] (SEQ ID NO:123) peptide to the binding medium in increasing concentrations. For phage binding on immunocaptured APA, wells were blocked for 1 h at room temperature with PBS/3% BSA and incubated with 10^9 TU for 1 h at room temperature in 50 μl PBS/3% BSA. After eight washes in PBS/1% BSA/0.01% Tween-20 and two washes in PBS, phage were rescued by adding 200 μl of exponentially growing K91Kan E. coli. Each experiment was repeated at least three times.

In assay [5] the test system is adipose tissue. Nature of the assay: Validation of adipose homing phage by in vivo homing. Particulars: FIG. 2. Further details: species or system mouse. As to the method:
FIG. 2. Validation of adipose homing peptides. Phage bearing targeting peptides identified in Example 4 were injected into pregnant mice and their recovery from adipose tissue was compared to control fd-tet phage without targeting sequences.
The fat homing clones selected were: FA—KGGRAKD (SEQ ID NO:53), FC—RGEVLWS (SEQ ID NO:54), FE—TREVHRS (SEQ ID NO:47) and FX—VMGSVTG (SEQ ID NO:52).

The test system of assay [6] is mouse placenta. Description: In vivo biopanning for placenta homing phage with post-clearing (clone frequency per round). The settings on record: for frequency of phage clone in round III: round III of in vivo biopanning in pregnant mice; for frequency of phage clone in round IV: post-clearing in non-pregnant mouse. As to the method: Peptides homing to the mouse placenta were identified by a post-clearing protocol using a phage display library. A first round of biopanning was performed on pregnant mice. Samples of placenta were removed and phage rescued according to the standard protocols described above, with one modification. In the typical bipanning protocol, thousands of phage may be recovered from a single organ, tissue or cell type. Typically, between 200 and 300 individual colonies were selected from plated phage and these were amplified and pooled to form the phage display library for the second or third rounds of biopanning. In this example, all phage rescued from the first round of biopanning were amplified in bulk on solid medium and then pooled to form the phage display library for the second round of biopanning. That is, there was no restriction of the rescued phage from the first round of biopanning. This in vivo biopanning without restriction was performed for three rounds (rounds I-III), then a post-clearing procedure was used.
In the post-clearing protocol (round IV), phage were administered to a non-pregnant mouse. Phage that bound to tissues other than placenta were absorbed from the circulation. Remaining phage were recovered from the plasma of the non-pregnant mouse. This protocol was designed to isolate phage that bound to placenta but not to other mouse organs, tissues or cell types. The following placenta targeting peptides were identified, along with their frequencies. A search of the GenBank database disclosed that none of the SEQ ID NO's listed below was 100% homologous with any known peptide sequence.

Assay [7] deals with placenta. Nature of the assay: Validation of placenta homing phage: recovery from placenta of pregnant mice. The assay is classed as in vivo, mouse. The settings on record: FIG. 1. The text has this: FIG. 1. Validation of placenta homing phage. […] The placenta homing phage clones were: […] NO:43). The placenta homing peptides were validated in vivo by injection into pregnant mice and recovery from the placenta. […] The phage clones are identified as: […] NO:43).

Assay [8] has as its target T2, GST-β5 integrin (Homo sapiens, UniProt P18084).
T2 construct: Plates were coated with GST fusion proteins of the cytoplasmic domains of various integrins and Annexin V was added to the plates
T2 sequence (P18084 743-799 limits assumed): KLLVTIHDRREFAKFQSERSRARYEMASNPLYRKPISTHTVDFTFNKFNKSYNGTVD
Description: Annexin V binding to GST-β5 cytoplasmic domain (ELISA), competition with VISY peptide. Particulars: FIG. 20A. The protocol: Competitive binding assays were performed to examine the binding of Annexin V to β5 integrin and the effect of the VISY peptide. Plates were coated with GST fusion proteins of the cytoplasmic domains of various integrins and Annexin V was added to the plates. Binding of Annexin V was determined using anti-Annexin V antibodies. […] Calcium was used because Annexin V activity has been reported to be modulated by calcium. Binding of Annexin V to GST-β5 was blocked by addition of the VISY peptide (FIG. 20A).
A reciprocal study was performed, using Annexin V to coat plates and adding GST fusion proteins of integrin cytoplasmic domains. Binding was assessed using anti-GST fusion protein antibodies. […] In some studies, calcium ion appeared to interfere with the binding interaction between GST-β5 and Annexin V, with decreased binding observed in the presence of calcium (not shown).
(In an ELISA, binding on a coated surface is turned into a signal by an enzyme label.)

[9] abbreviates: FITC conjugates-I, 1 mouse iv (predominantly) or ip ~every other day, day 1-day 18, 9 times, Total 450 μg).
The mark [10] stands for this setting: FITC conjugates-II, 1 mouse sc (predominantly) or iv ~every other day, day 4-day 17, 10 times, Total 1M (~1 mg).

T1 sequence (Q07075 whole entry): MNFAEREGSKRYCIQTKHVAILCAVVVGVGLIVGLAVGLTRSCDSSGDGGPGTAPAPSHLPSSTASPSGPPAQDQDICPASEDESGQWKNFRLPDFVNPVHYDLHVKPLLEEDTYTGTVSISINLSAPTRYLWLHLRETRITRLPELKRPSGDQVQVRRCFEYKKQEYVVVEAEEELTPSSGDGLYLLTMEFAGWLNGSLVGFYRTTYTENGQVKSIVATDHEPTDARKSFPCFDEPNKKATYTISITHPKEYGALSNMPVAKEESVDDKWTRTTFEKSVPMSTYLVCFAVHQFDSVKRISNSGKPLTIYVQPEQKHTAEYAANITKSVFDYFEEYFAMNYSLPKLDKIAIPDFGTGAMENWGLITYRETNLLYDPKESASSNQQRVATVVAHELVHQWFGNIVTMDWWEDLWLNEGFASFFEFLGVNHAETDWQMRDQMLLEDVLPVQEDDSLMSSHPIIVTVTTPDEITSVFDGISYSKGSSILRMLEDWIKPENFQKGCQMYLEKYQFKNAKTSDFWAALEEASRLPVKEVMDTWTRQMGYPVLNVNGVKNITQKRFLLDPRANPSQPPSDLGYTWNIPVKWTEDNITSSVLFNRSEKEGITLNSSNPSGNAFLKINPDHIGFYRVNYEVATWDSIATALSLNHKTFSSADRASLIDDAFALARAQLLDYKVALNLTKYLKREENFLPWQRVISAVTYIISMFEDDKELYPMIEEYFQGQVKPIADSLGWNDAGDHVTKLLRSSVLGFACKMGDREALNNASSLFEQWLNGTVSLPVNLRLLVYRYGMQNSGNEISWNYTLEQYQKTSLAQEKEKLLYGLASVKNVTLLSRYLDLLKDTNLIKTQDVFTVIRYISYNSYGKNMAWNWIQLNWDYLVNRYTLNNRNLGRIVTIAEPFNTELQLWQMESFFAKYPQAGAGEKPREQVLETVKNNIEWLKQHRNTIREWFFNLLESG

Turning to `COC(=O)C[C@H](NC(=O)[C@H](C)NC(=O)[C@@H](NC(=O)OCc1ccccc1)C(C)C)C(=O)CF` [zVAD, reference compound] (Cbz-Val-Ala-Asp(OMe)-CH2F), the “inhibition of VISY chimeric peptide-induced apoptosis” value in assay [1] (caspase inhibitor added at the same time as the VISY chimeric peptide) is recorded as “up to 70%”.

Consider “CARAC-FITC: CARAC peptide (SEQ ID NO:46) attached to FITC, non-placental targeting control (cysteine pairing not given here; also: attached to FITC, site not given here) [reference compound]”, for which the “Peptide Effect on Embryo” value in assay [2] (setting [9]) is given as “No effect”; in assay [2] (setting [10]), “Slight toxicity?”. In addition, the “Pregnancy Outcome” value in assay [2] (setting [9]) is 18 d, 5 normal pups; in assay [2] (setting [10]), 20 d, 5 pups, 1-dead.

For CAVACWADCQLGC, the “Round 2 (%)” value in assay [3] amounted to 5%.

On to CGTGCAVECEVVC, for which the “Round 2 (%)” value in assay [3] turned out to be 5%. In addition, the “enrichment of phage binding on SK-RC-49/APA cells relative to SK-RC-49 parental cells” value in assay [4] is “no selective binding”.

On to CSGLCTVQCLEGC, for which the “Round 2 (%)” value in assay [3] came out at 5%.

On to CSMMCLEGCDDWC, for which, in assay [3], the “Round 2 (%)” value amounted to 5%.

Consider “GST-PA: PA peptide (TPKTSVT) attached to GST (glutathion S-transferase)”, for which the “Peptide Effect on Embryo” value in assay [2] (GST conjugates-I, 1 mouse sc (predominantly) or iv ~every other day, day 4-day 17, 10 times, Total 800 μg) is listed as “Pregnancy termination”.

Turning to “KGGRAKD [fat-targeting peptide, fat homing phage clone FA]”, in assay [5], the “homing to adipose tissue compared to control fd-tet phage” value is on record as “some elevation of homing to adipose tissue”.

Consider “LGLRSVG [placenta targeting peptide, phage clone PE]”, for which, in assay [6], the “frequency of phage clone in round III” value was < 1% and the “frequency of phage clone in round IV” value turned out to be 5.3%. Further, the “placental homing of phage compared to control fd-tet phage” value in assay [7] is “not substantially enriched in placenta”.

“PA-FITC: placenta homer PA peptide (TPKTSVT) attached to FITC (fluorescein isothiocyanate) (also: FITC conjugate, site not given here)”: in assay [2] (setting [9]), the “Peptide Effect on Embryo” value was “No effect” and the “Pregnancy Outcome” value is 19 d, 8 normal pups. In assay [2] (setting [10]), the “Peptide Effect on Embryo” value was “Pregnancy termination” and the “Pregnancy Outcome” value is “No fetuses inside”.

On to “PF-FITC: placenta homer PF peptide (YIRPFTL) attached to FITC (also: FITC conjugate, site not given here)”, for which the “Peptide Effect on Embryo” value in assay [2] (setting [9]) was “Development delay,; also recorded: toxicity”; in assay [2] (setting [10]), “Pregnancy termination”. The “Pregnancy Outcome” value in assay [2] (setting [9]) is recorded as 21 d, 1 dead pup; in assay [2] (setting [10]), “No fetuses inside”.

For “RAPGGVR [placenta targeting peptide, phage clone PC]”, in assay [6], the “frequency of phage clone in round III” value is < 1% and the “frequency of phage clone in round IV” value is recorded as 8.5%. For the same compound, in assay [7], the “placental homing of phage compared to control fd-tet phage” value is reported as “substantially higher placental localization”.

As for “RGEVLWS [fat-targeting peptide, fat homing phage clone FC]”, the “homing to adipose tissue compared to control fd-tet phage” value in assay [5] is on record as “some elevation of homing to adipose tissue”.

As to RMDGPVR [placenta targeting peptide], in assay [6], the “frequency of phage clone in round III” value is reported as 3.1% and the “frequency of phage clone in round IV” value was 8.5%.

In the case of TPKTSVT, in assay [6], the “frequency of phage clone in round III” value is listed as 7.4% and the “frequency of phage clone in round IV” value is listed as 8.5%. Also, the “placental homing of phage compared to control fd-tet phage” value in assay [7] is “more than an order of magnitude greater”.

For the compound “TPKTSVT: placenta targeting peptide, tested displayed on phage clone PA”, in assay [2], the effect on pregnancy result was “slight effect on pregnancy” and the “effect on fetal development” value is reported as “substantially interfered with fetal development”.

“TREVHRS [adipose targeting peptide, fat homing phage clone FE]”: the “homing to adipose tissue compared to control fd-tet phage” value in assay [5] was “some elevation of homing to adipose tissue”.

As to VGLHARA [placenta targeting peptide], in assay [6], the “frequency of phage clone in round III” value was 4.2% and the “frequency of phage clone in round IV” value was 7.4%.

In the case of “VMGSVTG [fat-targeting peptide, fat homing phage clone FX]”, the “homing to adipose tissue compared to control fd-tet phage” value in assay [5] is given as “several orders of magnitude higher adipose localization”.

For VVISYSMPD, in assay [1] (15 μM, 2-4 hours, FIG. 21), the “induction of apoptosis (chromatin fragmentation)” value is listed as “Neither VISY or penetratin alone induced apoptosis”. In addition, the “effect on binding of Annexin V to GST-β5” value in assay [8] was “blocked”.

For “YIRPFTL [placenta targeting peptide, phage clone PF]”, in assay [6], the “frequency of phage clone in round III” value stood at 2.1% and the “frequency of phage clone in round IV” value amounted to 5.3%. Besides, the “placental homing of phage compared to control fd-tet phage” value in assay [7] is “not substantially enriched in placenta”.

For the compound “YIRPFTL: placenta targeting peptide, phage clone PF”, in assay [2], the effect on pregnancy result is reported as “slight effect on pregnancy” and the “effect on fetal development” value is reported as “substantially interfered with fetal development”.
